# Assay results published in patent US11090292B2, “Compositions and methods of use of an inappetance-controlling compound” (Aratana Therapeutics, Inc., priority 2012, dated 2021).
# Tests used:
# [1] = Example 1: clinical observations / toxicological responses; assay type: in vivo; settings: 3 mg/kg twice daily or 6 mg/kg once daily, 7 days
# Procedure: During the ten day study period, on an at least once-daily basis, each of the dogs was monitored for clinical observations, mortality, morbidity, body mass, and food consumption. Serum samples were taken to measure capromorelin concentration, GH concentration, IGF-1 concentration, and cortisol concentration. Serum samples were taken on days 1, 2, 4, and 7 at −15 minutes (pre-dose), immediately prior to dosing (0 minutes) and 30, 45, 60, 90, 120, 240, 360, and/or 480 minutes post dosing. Additional blood samples were taken at 8 AM on Day 10 of the study to assess long-term impact of the active treatments.
# GH = assay: Example 4: serum GH concentration; assay type: in vivo, Beagle dogs; settings: once-daily or twice-daily 3 mg/kg, approximately 0.5 h, days 1, 4, 7
# Procedure: A controlled, seven-day study was performed to assess the impact of different capromorelin-dosing regimens on the production of IGF-1, GH, and cortisol. The different capromorelin-dosing regimens were also assessed for the impact on food intake and changes in body mass.
# […] were divided into one of three treatment groups, with one negative control group and two active treatment groups. Each of the three treatment groups included three males and three females. The first group received a placebo formulation (i.e., deionized water) twice per day, via oral gavage. The second group received a once-daily dose of the capromorelin composition at a concentration of 3 mg/kg, via oral gavage. The third group received a twice-daily dose of the capromorelin composition at a concentration of 3 mg/kg, via oral gavage.
# During the ten day study period, on an at least once-daily basis, each of the dogs was monitored for clinical observations, mortality, moribundity, body mass, acceptability/palatability, and food consumption. Serum samples were taken to measure capromorelin concentration, GH concentration, IGF-1 concentration, and cortisol concentration. Serum samples were taken on days 1, 2, 4, and 7 at −15 minutes (pre-dose), immediately prior to dosing (0 minutes) and 30, 45, 60, 90, 120, 240, 360, and/or 480 minutes post dosing. […]
# IGF-1 = assay: Example 12: serum IGF-1; assay type: in vivo, cats; settings: Day 0
# Procedure: Similar to some of the other pharmacokinetic analyses conducted in dogs and cats, an additional pharmacokinetic study was conducted in cats to assess capromorelin formulations that allow sufficient drug to circulate to produce appetite stimulation and to define the capromorelin pharmacokinetic profile in cats. Briefly, twelve cats were randomized into Group 1 (six cats) and Group 2 (six cats). Group 1 received an intravenous formulation that included 0.75 mg/kg of capromorelin dissolved in sterile water and Group 2 received a previously tested formulation via oral gavage. Food consumption was determined daily for all cats. Specifically, animals were offered feed at approximately 11:00 AM, with the removal of feed at approximately 3:00 PM. Upon removal of feed, the amount consumed was calculated. […] Initially, the cats were given a seven day acclimation period to adjust to the experimental conditions and feed provided. After the acclimation period, on Day 0, all animals in Group 1 received an intravenous injection of the composition containing a dose of 0.75 mg/kg of capromorelin. On Day 0, the animals in Group 2 received an oral administration of the formulation via gavage at a dose of 3 mg/kg of capromorelin. […]
# [2] = Example 13: serum capromorelin and pharmacokinetics; assay type: in vivo, cats with compromised kidney function
# Procedure: The following study was undertaken to assess multiple points. First, the following experiments were conducted to determine if a formulation of capromorelin, when administered either intravenously or subcutaneously, can stimulate appetite in cats with compromised kidney function. Second, the following experiments were conducted to assess the pharmacokinetic profile of capromorelin in the serum of cats with compromised kidney function. Finally, the following experiments were conducted to determine if capromorelin accumulates in the serum after 14 days of treatment that is subcutaneously administered. Sixteen cats with compromised kidney function were acclimatized for the following study. Animals assigned to Group 1 (n=6) received an intravenous administration of a capromorelin formulation (i.e., capromorelin in sterile water) at a dose of 0.75 mg/kg on Day 0 of the experiment. Animals assigned to Group 2 (n=6) received a subcutaneous administration of a capromorelin formulation (2.1% w/v capromorelin, 1% w/v benzyl alcohol, and citrate buffer) daily for 14 days at a dose of 2 mg/kg. Animals assigned to Group 3 (n=4) served as untreated controls. During the study, blood samples were taken from the Group 1 animals at time points 0 (pre-administration), 5 minutes, 10 minutes, 30 minutes, 1 h, 2 h, 4 h, 6 h, 8 h, and 12 h post administration on Day 0. Blood samples were taken from the Group 2 animals at time points 0 (pre-administration), 15 minutes, 30 minutes, 45 minutes, 1 h, 2 h, 4 h, 6 h, 8 h, and 12 h post administration on Day 0 and time points 0, 30 minutes, 1 h, 2 h, 4 h, and 8 h post administration on Day 13. In addition, body weights were collected on study days −7, −1, and 13 (for Groups 2 and 3 only). Diet consumption was also monitored on study days −7 until day 13 for the animals in Groups 2 and 3 only. Referring to FIGS. 116 and 118, the pharmacokinetics of subcutaneously administered capromorelin were also determined. […] In addition, the mean fraction of the dose absorbed was determined by dividing the mean area under the curve (AUC)/dose of the animals in Group 2, which was divided by AUC/dose of the animals in Group 1. In this case, the mean fraction of the dose (F) absorbed is 1.37.
# [3] = Group 1, intravenous 0.75 mg/kg, Day 0
# [4] = Group 2, subcutaneous 2 mg/kg daily, Day 13
# [5] = Group 2, subcutaneous 2 mg/kg, Day 0
smiles,measurement,setting,value
CN1N=C2CCN(C(=O)[C@@H](COCc3ccccc3)NC(=O)C(C)(C)N)C[C@@]2(Cc2ccccc2)C1=O.O=C(O)C(O)C(O)C(=O)O [capromorelin],toxicological responses,[1],no toxicological responses were noted
same,GH levels in the serum after dosing,GH,marked increase
same,"IGF-1 levels in the serum, Group 1 (IV 0.75 mg/kg) compared to Group 2 (oral 3 mg/kg)",IGF-1,greater increased in IGF-1 levels
same,serum concentration of capromorelin at the spike,[2]; [3],about 397 ng/mL
same,time post-administration of initial spike of serum capromorelin,[2]; [3],about 5 minutes
same,mean absorption time,"[2]; Group 2, subcutaneous 2 mg/kg",0.4 h
same,accumulation in the serum after 14 days of treatment,"[2]; Group 2, subcutaneous 2 mg/kg daily",does not accumulate
same,serum concentration of capromorelin at the spike,[2]; [4],about 950 ng/mL
same,time post administration of spike in serum capromorelin,[2]; [4],30 min
same,serum concentration of capromorelin at the spike,[2]; [5],about 833 ng/mL
same,time post-administration of initial spike of serum capromorelin,[2]; [5],about 15 minutes
same,Cmax,"[2]; cat, serum, sc, Group 2, subcutaneous 2 mg/kg, read-out: geometric Cmax",893 ng/mL
same,clearance,"[2]; cat, serum, Group 1, intravenous 0.75 mg/kg, several of the test animals",20 mL/min/kg
same,half-life,"[2]; cat, serum, Group 1, intravenous 0.75 mg/kg, read-out: terminal half-life",40.2 to 54 min
same,mean fraction of the dose (F) absorbed,[2]; subcutaneous AUC/dose (Group 2) divided by intravenous AUC/dose (Group 1),1.37
